According to EP0928340B1, “INVASION-INHIBITORS FOR USE IN WOUND HEALING AND CANCER” (THE REGENTS OF THE UNIVERSITY OF MICHIGAN, priority 1996, dated 2009):
Like-named read-outs stand apart in the source and are kept apart here.

Columns and labels:
[1] = system: DU-145 prostate cancer cells; test: SU-ECM in vitro invasion assay, human prostate cancer cells; format: cell-based; settings: for IC100: Homo sapiens, DU-145, read-out: concentration that completely (fully) inhibits invasion
Description: Adult Strongylocentrotus purpuratus sea urchins were obtained from Pacific BioMarine, and their embryos were cultured to the early pluteus stage in artificial sea water at 15°C. SU-ECM were prepared from them by treatment with nonionic detergent and strerilized by dilution in the appropriate media.
[…] When appropriate, purified bovine plasma fibronectin (Sigma), purified 120 kDa chymotryptic fragment (Gibco BRL). PHSRN or PHSCN peptides (synthesized at the Biomedical Research Core Facilities of the University of Michigan), or GRGDSP or GRGESP peptides (Gibco BRL) were added to the resuspended cells prior to placement of the cells on SU-ECM. In each well of a plate used for an invasion assay, SU-ECM were placed in 0.5 ml of the appropriate medium, and 0.5ml of the resuspended cells dropped on their exterior surfaces. Invasion assays were incubated 1 to 16 hours prior to assay. If some circumstances, invasion assays were fixed in phosphate-buffered saline (PBS) with 2% formaldehyde for 5 minutes at room temperature, then rinsed into PBS.
Invasion assays were coded and scored blindly by microscopic examination under phase contrast at 200- and 400-fold magnification. Each cell contacting an SU-ECM was scored for its position relative to the exterior or interior surfaces. A cell was judged to have invaded if it was located on an interior surface below the focal plane passing through the upper surface of the SU-ECM, but above the focal plane passing through its lower surface. The minimum viability of the cells in each assay was always ascertained at the time of assay by determining the fraction of spread, adherent cells on the bottom of each well scored.
An invasion frequency is defined as the fraction of cells in contact with basement membranes which were located in their interiors at the time of assay. Thus, an invasion frequency of 1 denotes invasion by 100% of the cells in contact with basement membranes. Invasion frequencies were determined multiple times for each cell type assayed. For each type of cell assayed the mean and standard deviation of the invasion frequencies were calculated.
The method of Example 4 is employed, with the addition of varying concentrations of the PHSCN peptide.
Thus, the procedure in Example 4 provides a method for determining the inhibitory potential of the PHSCN peptide by comparing the number of cell invasions in the presence of the PHSCN peptide, with the number of cell invasions in the absence of the PHSCN peptide.
In this example, in vitro invasion of cancer cells into substrates is inhibited with peptides that have been chemically modified with protecting groups and peptides having protecting groups as well as the modification wherein an L-amino acid has been replaced with the D-isomer. PHSCN peptide, blocked PHSCN peptide, and blocked PHSCN peptide with a D-cysteine instead of the L-isomer, were tested (Figure 11).
In this example, in vitro invasion of cancer cells into substrates is inhibited with non-peptide mimetics in comparison with chemically modified peptides (on a molar basis). The peptides of Example 14 (i.e. peptides chemically modified with protecting groups and peptides having protecting groups as well as the modification wherein an L-amino acid has been replaced with the D-isomer) were compared with the non-peptide mimetics DL-N-Acetylhomocysteinethiolactone, Thiobutyrolactone, and Mercaptopropionic acid, in order to investigate the structure activity relationship for invasion inhibition by interaction with the PHSRN-binding pocket of the α5β1 fibronectin receptor (Figure 12)

[2] = target: α5β1 integrin fibronectin receptor (human) (UniProt P08648); test: cell-based or functional assay
Sequence of UniProt P08648 (P08648 42-1049, chain 1 of 2): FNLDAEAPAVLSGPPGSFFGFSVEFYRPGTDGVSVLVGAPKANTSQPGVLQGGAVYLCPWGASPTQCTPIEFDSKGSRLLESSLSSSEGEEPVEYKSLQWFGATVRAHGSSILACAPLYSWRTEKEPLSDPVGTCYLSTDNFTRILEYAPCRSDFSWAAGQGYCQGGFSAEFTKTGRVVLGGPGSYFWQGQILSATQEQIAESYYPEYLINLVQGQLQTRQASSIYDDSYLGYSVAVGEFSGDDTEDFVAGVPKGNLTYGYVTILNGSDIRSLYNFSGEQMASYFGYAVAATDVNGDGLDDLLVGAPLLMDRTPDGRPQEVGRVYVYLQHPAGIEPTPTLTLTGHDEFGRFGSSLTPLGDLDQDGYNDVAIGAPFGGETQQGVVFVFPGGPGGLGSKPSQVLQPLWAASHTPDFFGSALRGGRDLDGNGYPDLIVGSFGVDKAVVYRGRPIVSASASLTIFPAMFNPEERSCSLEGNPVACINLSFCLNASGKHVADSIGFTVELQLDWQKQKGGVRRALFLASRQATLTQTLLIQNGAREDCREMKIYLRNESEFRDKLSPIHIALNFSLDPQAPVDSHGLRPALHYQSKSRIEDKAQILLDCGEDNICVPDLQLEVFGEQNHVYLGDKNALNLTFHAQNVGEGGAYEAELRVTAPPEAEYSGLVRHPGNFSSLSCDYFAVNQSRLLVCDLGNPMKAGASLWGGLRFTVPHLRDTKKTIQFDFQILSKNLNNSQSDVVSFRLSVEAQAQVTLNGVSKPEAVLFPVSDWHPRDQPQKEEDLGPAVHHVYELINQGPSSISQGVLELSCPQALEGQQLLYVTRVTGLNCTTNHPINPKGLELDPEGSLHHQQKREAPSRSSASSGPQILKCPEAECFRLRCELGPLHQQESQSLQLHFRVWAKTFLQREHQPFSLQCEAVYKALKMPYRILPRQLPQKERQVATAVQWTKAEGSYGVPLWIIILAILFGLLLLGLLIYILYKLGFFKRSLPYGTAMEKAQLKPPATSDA
Sequence of UniProt P08648 (P05556 21-798, chain 2 of 2, further chain): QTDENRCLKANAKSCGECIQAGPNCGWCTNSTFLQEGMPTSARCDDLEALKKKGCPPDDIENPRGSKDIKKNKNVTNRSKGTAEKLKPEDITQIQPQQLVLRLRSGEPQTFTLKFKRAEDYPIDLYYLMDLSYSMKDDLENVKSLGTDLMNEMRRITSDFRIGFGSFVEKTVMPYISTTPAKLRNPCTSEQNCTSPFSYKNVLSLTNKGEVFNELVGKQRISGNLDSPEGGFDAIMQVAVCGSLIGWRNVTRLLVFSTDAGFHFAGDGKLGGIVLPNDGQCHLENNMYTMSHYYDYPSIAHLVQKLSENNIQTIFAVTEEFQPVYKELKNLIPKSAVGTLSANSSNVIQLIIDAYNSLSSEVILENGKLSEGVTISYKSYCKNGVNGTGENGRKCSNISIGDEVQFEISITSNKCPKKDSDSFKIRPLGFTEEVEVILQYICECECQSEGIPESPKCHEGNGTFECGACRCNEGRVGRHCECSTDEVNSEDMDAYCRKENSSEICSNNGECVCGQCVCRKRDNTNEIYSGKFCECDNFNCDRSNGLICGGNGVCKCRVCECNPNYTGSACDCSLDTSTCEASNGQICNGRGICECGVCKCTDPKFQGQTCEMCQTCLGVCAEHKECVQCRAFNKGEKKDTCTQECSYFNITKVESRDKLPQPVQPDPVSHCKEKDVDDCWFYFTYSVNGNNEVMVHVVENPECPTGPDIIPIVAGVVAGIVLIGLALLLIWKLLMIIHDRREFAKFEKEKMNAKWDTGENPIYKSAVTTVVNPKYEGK

[3] = target: α5β1 integrin fibronectin receptor (human) (UniProt P08648); test: cell-based or functional assay; remark: listed apart in the source
[4] = invasion inhibition, molar basis (Figure 12)

Molecule	IC100 [1] [µM]	less active than blocked PHSCN [1, 4]	less active than the unblocked PHSCN peptide [1, 4] [times]	concentration giving complete inhibition of invasion of metastatic DU145 cells into SU-ECM in medium with 10% serum [2] [ng/mL]	concentration giving complete inhibition of invasion of metastatic DU145 cells into SU-ECM in medium with 10% serum [3] [µM]	further results
CC(=O)NC1CCSC1=O (racemic) [DL-N-Acetylhomocysteinethiolactone]	0.6	about 10 fold	–	–	–	more active than the unblocked PHSCN peptide [1, 4]: about 3 fold
O=C(O)CCS [Mercaptopropionic acid]	–	–	1500	–	–	reduction of DU145 invasion ([1]; at any of the concentrations tested, medium with 10% serum (Figure 12)): ≤ 20%; less active in invasion inhibition than thiobutyrolactone [1, 4]: at least 100 times
O=C1CCCS1 [Thiobutyrolactone]	30	about 500 fold	15	–	–	less active than N-acetylhomocysteinethiolactone [1, 4]: 50 fold
Ac-PHSCN-NH2 [Ac-PHSCN-NH2]	–	–	–	–	–	concentration that completely inhibits invasion ([1]; medium with 10% serum (Example 14, Figure 11)): approximately 1.3 ng/ml; concentration that completely (fully) inhibits invasion ([1]; medium with 10% serum (Example 15, Figure 12)): approximately 0.06 µM
Ac-PHSCN-NH2 peptide	–	–	–	1.3	0.06	–
PHSCN peptide	–	–	–	3	2	–
